The values that follow come from patent publication US6531481B2 (priority 1998, dated 2003).

One series concerns opioid receptors. Briefly: Stimulation of [35S]GTPγS binding (agonist/antagonist activity). In kind it is biochemical, guinea pig.

Counter-ions that a name gives are not always drawn.

Regarding `C=CCN1CC[C@H](N(c2ccccc2)c2ccc(C(=O)N(CC)CC)cc2)[C@H](C)C1` (racemic) (as salt: hydrochloride), the melting point (usually the temperature of the solid-liquid transition) was 221 to 225.5 °C.
Consider `C=CCN1CC[C@@H](N(c2ccccc2)c2ccc(C(=O)N(CC)CC)cc2)[C@H](C)C1` (racemic) (as salt: hydrochloride), for which the melting point was in the range of 177 to 178 °C.
For `CN1CCC2(c3cccc(O)c3)Cc3ccccc3CC2(C)C1` (racemic) [Compound 7, (±)-1,2,3,4,4a,5,10,10a-octahydro-4a-(3-hydroxyphenyl)-2,10a-dimethylbenzo-[g]isoquinoline], the “stimulation of [35S]GTPγS binding (agonist activity)” value in the series with opioid receptors (concentrations as high as 1 μM) is on record as “neither the N-methyl derivative 7 nor the N-phenethyl derivative 8 stimulated”.
As to `CC1C2CCCC1(c1cccc(O)c1)CCN2CCc1ccccc1` (stereo not drawn) [Compound 5c, 5-(3-Hydroxyphenyl)-9β-methyl-2-(2′-phenylethyl)-2-azabicyclo[3.3.1]nonane], the agonist/antagonist character entry with opioid receptors ([35S]GTPγS functional assay) is “pure antagonists at the μ, δ, and κ opioid receptors”. Moreover, the “stimulation of GTP binding (agonist activity)” value in the series with opioid receptors (up to concentrations of 10 μM) is reported as “neither 5b nor 5c stimulated GTP binding”.
